Data published in ChEMBL document CHEMBL3797052 (Eur J Med Chem, 2016).

Assays:
Type in all cases: functional
[1] = Antiproliferative activity against human RPMI8226 cells assessed as cell growth at 10^-5 M after 48 hrs by sulforhodamine B assay; settings: RPMI-8226, 48 h, read-out: Activity
[2] = Antiproliferative activity against human HOP62 cells assessed as cell growth at 10^-5 M after 48 hrs by sulforhodamine B assay; settings: HOP-62, 48 h, read-out: Activity
[3] = Antiproliferative activity against human HOP92 cells assessed as cell growth at 10^-5 M after 48 hrs by sulforhodamine B assay; settings: HOP-92, 48 h, read-out: Activity
[4] = test system: NCI-H322M; assay: Antiproliferative activity against human NCI-H322M cells assessed as cell growth at 10^-5 M after 48 hrs by sulforhodamine B assay; settings: read-out: Activity
[5] = test system: NCI-H522; assay: Antiproliferative activity against human NCI-H522 cells assessed as cell growth at 10^-5 M after 48 hrs by sulforhodamine B assay; settings: NCI-H522, 48 h, read-out: Activity
[6] = Antiproliferative activity against human HCT15 cells assessed as cell growth at 10^-5 M after 48 hrs by sulforhodamine B assay; settings: HCT-15, 48 h, read-out: Activity
[7] = test system: KM12; assay: Antiproliferative activity against human KM12 cells assessed as cell growth at 10^-5 M after 48 hrs by sulforhodamine B assay; settings: KM12, 48 h, read-out: Activity
[8] = Antiproliferative activity against human SW620 cells assessed as cell growth at 10^-5 M after 48 hrs by sulforhodamine B assay; settings: SW-620, 48 h, read-out: Activity
[9] = Antiproliferative activity against human SF268 cells assessed as cell growth at 10^-5 M after 48 hrs by sulforhodamine B assay; settings: SF-268, 48 h, read-out: Activity
[10] = Antiproliferative activity against human SF539 cells assessed as cell growth at 10^-5 M after 48 hrs by sulforhodamine B assay; settings: SF-539, 48 h, read-out: Activity
[11] = test system: U-251; assay: Antiproliferative activity against human U251 cells assessed as cell growth at 10^-5 M after 48 hrs by sulforhodamine B assay; settings: U-251, 48 h, read-out: Activity
[12] = Antiproliferative activity against human LOXIMVI cells assessed as cell growth at 10^-5 M after 48 hrs by sulforhodamine B assay; settings: LOX IMVI, read-out: Activity
[13] = test system: MDA-MB-435; assay: Antiproliferative activity against human MDA-MB-435 cells assessed as cell growth at 10^-5 M after 48 hrs by sulforhodamine B assay; settings: MDA-MB-435, 48 h, read-out: Activity
[14] = test system: SK-MEL-2; assay: Antiproliferative activity against human SK-MEL-2 cells assessed as cell growth at 10^-5 M after 48 hrs by sulforhodamine B assay; settings: SK-MEL-2, 48 h, read-out: Activity
[15] = test system: SK-MEL-28; assay: Antiproliferative activity against human SK-MEL-28 cells assessed as cell growth at 10^-5 M after 48 hrs by sulforhodamine B assay; settings: SK-MEL-28, 48 h, read-out: Activity
[16] = Antiproliferative activity against human OVCAR3 cells assessed as cell growth at 10^-5 M after 48 hrs by sulforhodamine B assay; settings: OVCAR-3, 48 h, read-out: Activity
[17] = Antiproliferative activity against human OVCAR4 cells assessed as cell growth at 10^-5 M after 48 hrs by sulforhodamine B assay; settings: OVCAR-4, 48 h, read-out: Activity
[18] = Antiproliferative activity against human OVCAR8 cells assessed as cell growth at 10^-5 M after 48 hrs by sulforhodamine B assay; settings: OVCAR-8, 48 h, read-out: Activity
[19] = Antiproliferative activity against human NCI-ADR-RES cells assessed as cell growth at 10^-5 M after 48 hrs by sulforhodamine B assay; settings: read-out: Activity
[20] = Antiproliferative activity against human SKOV3 cells assessed as cell growth at 10^-5 M after 48 hrs by sulforhodamine B assay; settings: SK-OV-3, 48 h, read-out: Activity
[21] = Antiproliferative activity against human Caki1 cells assessed as cell growth at 10^-5 M after 48 hrs by sulforhodamine B assay; settings: CAKI-1, 48 h, read-out: Activity
[22] = Antiproliferative activity against human RXF393 cells assessed as cell growth at 10^-5 M after 48 hrs by sulforhodamine B assay; settings: RXF 393, 48 h, read-out: Activity
[23] = Antiproliferative activity against human TK10 cells assessed as cell growth at 10^-5 M after 48 hrs by sulforhodamine B assay; settings: TK-10, 48 h, read-out: Activity
[24] = Antiproliferative activity against human PC3 cells assessed as cell growth at 10^-5 M after 48 hrs by sulforhodamine B assay; settings: PC-3, 48 h, read-out: Activity
[25] = test system: MCF7; assay: Antiproliferative activity against human MCF7 cells assessed as cell growth at 10^-5 M after 48 hrs by sulforhodamine B assay; settings: MCF7, 48 h, read-out: Activity
[26] = Antiproliferative activity against human Hs 578T cells assessed as cell growth at 10^-5 M after 48 hrs by sulforhodamine B assay; settings: read-out: Activity
[27] = test system: T47D; assay: Antiproliferative activity against human T47D cells assessed as cell growth at 10^-5 M after 48 hrs by sulforhodamine B assay; settings: read-out: Activity
[28] = test system: MCF7; assay: Antiproliferative activity against human MCF7 cells assessed as growth inhibition after 48 hrs by sulforhodamine B assay; settings: MCF7, 48 h

Structure (SMILES) | growth at 10 µM [1] | growth at 10 µM [2] | growth at 10 µM [4] | growth at 10 µM [5] | growth at 10 µM [6] | growth at 10 µM [7] | growth at 10 µM [8] | growth at 10 µM [9] | growth at 10 µM [10] | growth at 10 µM [11] | growth at 10 µM [12] | growth at 10 µM [13] | growth at 10 µM [14] | growth at 10 µM [16] | growth at 10 µM [17] | growth at 10 µM [18] | growth at 10 µM [19] | growth at 10 µM [21] | growth at 10 µM [22] | growth at 10 µM [23] | also measured
CNC(=O)c1cc(Oc2ccc3nc(NC(=O)c4ccc5c(c4)OCCO5)sc3c2)ccn1 | 97.7% | 104% | 99% | 99.6% | 105% | 95.3% | 107% | 96.6% | 100% | 45.5% | 97.8% | 98.5% | 113% | 101% | 97.5% | 100% | 95.8% | 97.7% | 102% | 105% | growth at 10 µM [3]: 93.5%; growth at 10 µM [15]: 103%; growth at 10 µM [20]: 101%; growth at 10 µM [24]: 95.8%; growth at 10 µM [25]: 90.3%; growth at 10 µM [26]: 112%; growth at 10 µM [27]: 92.1%
CNC(=O)c1cc(Oc2ccc3nc(NC(=O)c4ccc5ncccc5c4)sc3c2)ccn1 | 71.9% | 112% | 99% | 54.3% | 91.1% | 101% | 112% | 97.5% | 107% | 93.6% | 99.6% | 91.6% | 86.2% | 98.9% | 87.4% | 100% | 88.8% | 89.9% | 109% | 90.5% | growth at 10 µM [3]: 110%; growth at 10 µM [15]: 101%; growth at 10 µM [24]: 93.2%; growth at 10 µM [25]: 88%; growth at 10 µM [26]: 108%; growth at 10 µM [27]: 51.3%
CNC(=O)c1cc(Oc2ccc3nc(NC(=O)Nc4ccc(C(F)(F)F)cc4)sc3c2)ccn1 | 70.4% | 67.3% | 80.5% | 42.4% | 54.2% | 65% | 37.9% | 65% | 82.2% | 22.4% | 48.1% | 40.9% | 92.9% | 24% | 37.7% | 48.5% | 58.4% | 92% | 85.5% | 55.3% | growth at 10 µM [3]: 74.4%; growth at 10 µM [15]: 68.9%; growth at 10 µM [20]: 105%; growth at 10 µM [24]: 58.8%; growth at 10 µM [25]: 42%; growth at 10 µM [26]: 30%; growth at 10 µM [27]: 44.8%
CNC(=O)c1cc(Oc2ccc(NC(=O)Nc3ccc(Cl)c(C(F)(F)F)c3)cc2)ccn1 [SORAFENIB] |  |  |  |  |  |  |  |  |  |  |  |  |  |  |  |  |  |  |  |  | GI50 [28]: 2.51 µM; TGI [28]: 7.94 µM; CC50 ([28]; read-out: LC50 (the source's name)): 50.1 µM
CNC(=O)c1cc(Oc2ccc3nc(NC(=O)c4cccc(F)n4)sc3c2)ccn1 | 70.4% | 90% | 92.8% | 69.8% | 92.2% | 87.5% | 105% | 89.6% | 96.6% | 79.9% | 84.8% | 100% | 110% | 95.5% | 76% | 85% | 88.8% | 83% | 101% | 133% | growth at 10 µM [3]: 81.4%; growth at 10 µM [15]: 105%; growth at 10 µM [20]: 116%; growth at 10 µM [24]: 73%; growth at 10 µM [25]: 86.3%; growth at 10 µM [26]: 92.7%; growth at 10 µM [27]: 84.8%
CNC(=O)c1cc(Oc2ccc3nc(NC(=O)c4ccc(Cl)c(C(F)(F)F)c4)sc3c2)ccn1 | 64.8% | 83.7% | 87.4% | 57.3% | 85% | 67.7% | 92.4% | 85.3% | 69.9% | 59.2% | 71.2% | 80.4% | 96.5% | 66.4% | 36.7% | 57.2% | 64.9% | 95.2% | 47.9% | 92.8% | growth at 10 µM [15]: 83%; growth at 10 µM [20]: 85.3%; growth at 10 µM [24]: 62.7%; growth at 10 µM [25]: 64.1%; growth at 10 µM [26]: 66.2%; growth at 10 µM [27]: 64.8%
CNC(=O)c1cc(Oc2ccc3nc(NC(=O)Nc4ccc(F)cc4F)sc3c2)ccn1 | 72.9% | 60.7% | 62.2% | 68.7% | 84% | 72.6% | 99.9% | 76.1% | 61.7% | 37% | 52.1% | 62.5% | 74.7% | 74.7% | 34.2% | 45.1% | 45.5% | 88.4% | 42.3% | 93.5% | growth at 10 µM [3]: -13.7%; growth at 10 µM [15]: 52.1%; growth at 10 µM [20]: 76.3%; growth at 10 µM [24]: 65.9%; growth at 10 µM [25]: 66.8%; growth at 10 µM [26]: 44.5%; growth at 10 µM [27]: 56.5%
CNC(=O)c1cc(Oc2ccc3nc(NC(=O)Nc4ccc(Cl)cc4)sc3c2)ccn1 | 81.7% | 6.54% | 66.8% | 78% | 84.8% | 70% | 101% | 56.2% | 83.5% | 37.3% | 51.6% | 64.1% | 81.1% | 48.8% | 13% | 57.2% | 83.6% | 94.7% | 50.8% | 62.3% | growth at 10 µM [3]: 63.3%; growth at 10 µM [20]: 82%; growth at 10 µM [24]: 66%; growth at 10 µM [25]: 69.5%; growth at 10 µM [26]: 30.1%; growth at 10 µM [27]: 44%
